The source of these data is patent publication US10752588B2 (The Broad Institute, Inc., priority 2014, dated 2020).

pEC50, pIC50: −log10 of the molar value. Like-named read-outs stand apart in the source and are kept apart here.

In general, pEC50 refers to −log10 of the EC50, conventionally taken in molar units. The low end stands for a large EC50, the high end for a small EC50.

The target of data set [1] is T1, human D2R/β-arrestin (Homo sapiens (Human), UniProt P14416). The following applies: read-out: cAMP Antagonist.
T1 sequence (P14416 whole entry): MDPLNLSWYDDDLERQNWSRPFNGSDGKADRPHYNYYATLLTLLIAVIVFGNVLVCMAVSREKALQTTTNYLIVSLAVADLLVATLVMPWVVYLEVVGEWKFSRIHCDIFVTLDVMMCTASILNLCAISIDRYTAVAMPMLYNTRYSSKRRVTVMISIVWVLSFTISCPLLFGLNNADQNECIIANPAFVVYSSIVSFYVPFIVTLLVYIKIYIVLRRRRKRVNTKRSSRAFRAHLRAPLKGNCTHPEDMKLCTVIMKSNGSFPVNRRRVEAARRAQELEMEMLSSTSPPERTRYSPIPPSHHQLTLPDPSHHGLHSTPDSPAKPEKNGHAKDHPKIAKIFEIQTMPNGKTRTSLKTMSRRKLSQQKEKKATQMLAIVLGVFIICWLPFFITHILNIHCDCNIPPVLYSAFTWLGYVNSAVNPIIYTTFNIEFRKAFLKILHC
Data set [2] deals with T1, human D2R/β-arrestin. In words: β-Arrestin agonist assay (PathHunter). In kind it is cell-based. The following applies: CHO-K1 cell line expressing human D2R/β-arrestin. The method in brief:
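After compound incubation, detection reagent (Buffer:Emerald II:Galactor-Star, 19:5:1) added and luminescence or fluorescence read.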

Data set [3] deals with T1, human D2R/β-arrestin. The following applies: read-out: β-arrestin Antagonist.
The nature of data set [4]: Microsomal stability, mouse.
For data set [5], the target named is T1, human D2R/β-arrestin. As to the kind of experiment: Gi/cAMP agonist assay (Lance Ultra cAMP, Forskolin). It is filed as cell-based. The following applies: CHO-K1 cell line expressing human D2R/β-arrestin. The method in brief: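 Cells were plated and incubated before compounds were pin-transferred and incubated for 10 min at 37 °C. Forskolin was then added to stimulate cAMP. cAMP was detected by Lance Ultra TR-FRET using Eu-cAMP tracer and ULight-anti-cAMP antibody.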

The mark [6] stands for this setting: CHO-K1 cell line expressing human D2R/β-arrestin, quinpirole used as agonist.

For `O=C(NC(c1ccc(Cl)cc1)c1ccccn1)C1CCN(CCOc2ccccc2C(F)(F)F)CC1` (single isomer, unassigned) [Compound 6b], the pIC50 at human D2R/β-arrestin [1] and at human D2R/β-arrestin [3] was more than 7.00 in each case. The pEC50 on human D2R/β-arrestin [2] and at human D2R/β-arrestin [5] was less than 4.52 each time. The “Microsomal Stability: % remaining after 60 minutes” value in data set [4] is given as “m2%”.

With `COc1cccc(C(NC(=O)C2CCN(CCOc3ccccc3F)CC2)c2ccccn2)c1` (single isomer, unassigned) [Compound 22b, 1-(2-(2-fluorophenoxy)ethyl)-N-((3-methoxyphenyl)(pyridin-2-yl)methyl) piperidine-4-carboxamide], the pIC50 on human D2R/β-arrestin [1] and at human D2R/β-arrestin [3] was 6.00 to 7.00 each time. Moreover, the pEC50 at human D2R/β-arrestin [2] and at human D2R/β-arrestin [5] was less than 4.52 each time. Also, the “Microsomal Stability: % remaining after 60 minutes” value in data set [4] is reported as “m12%”.

With `c1ccc(OCCN2CCC(CNC(c3ccc4c(c3)OCO4)c3ccccn3)CC2)cc1` (single isomer, unassigned) [Compound 102b, 1-(benzo[d][1,3]dioxol-5-yl)-N-((1-(2-phenoxyethyl)piperidin-4-yl)methyl)-1-(pyridin-2-yl)methanamine], the pIC50 at human D2R/β-arrestin [1] (setting [6]) and on human D2R/β-arrestin [3] (setting [6]) was 5.00 to 6.00 throughout. The pEC50 at human D2R/β-arrestin [2] was less than 4.52; on human D2R/β-arrestin [5] it was 5.00 to 6.00.

`Fc1ccc(C(NCC2CCN(CCOc3ccccc3)CC2)c2ccccn2)cc1` (single isomer, unassigned) [Compound 78b, 1-(4-fluorophenyl)-N-((1-(2-phenoxyethyl)piperidin-4-yl)methyl)-1-(pyridin-2-yl)methanamine]: the pIC50 on human D2R/β-arrestin [1] (setting [6]) and at human D2R/β-arrestin [3] (setting [6]) was 5.00 to 6.00 throughout. Moreover, the pEC50 on human D2R/β-arrestin [2] and on human D2R/β-arrestin [5] was less than 4.52 each time.

For `O=C(NC(c1ccc(Cl)cc1)c1ccccn1)C1CCN(CCOc2cc(F)ccc2F)CC1` (single isomer, unassigned) [Compound 14b], the pIC50 at human D2R/β-arrestin [1] was 5.00 to 6.00; on human D2R/β-arrestin [3], 6.00 to 7.00. Also, the pEC50 at human D2R/β-arrestin [2] and at human D2R/β-arrestin [5] was less than 4.52 in each case.

Turning to `O=C(NC(c1ccc(F)cc1)c1ccccn1)C1CCN(CCOc2ccccc2Cl)CC1` (single isomer, unassigned) [Compound 53a, 1-(2-(2-chlorophenoxy)ethyl)-N-((4-fluorophenyl)(pyridin-2-yl)methyl) piperidine-4-carboxamide], the pIC50 on human D2R/β-arrestin [1] and at human D2R/β-arrestin [3] was 6.00 to 7.00 in each case. Besides, the negative-log EC50 (pEC50) at human D2R/β-arrestin [2] and at human D2R/β-arrestin [5] was less than 4.52 each time.

Take `O=C(NC(c1cccc(OC(F)(F)F)c1)c1ccccn1)C1CCN(CCOc2ccccc2)CC1` (single isomer, unassigned) [Compound 118a, 1-(2-phenoxyethyl)-N-(pyridin-2-yl(3-(trifluoromethoxy)phenyl)methyl) piperidine-4-carboxamide]: the pIC50 at human D2R/β-arrestin [1] was less than 4.52; at human D2R/β-arrestin [3], 4.52 to 5.00. Moreover, the pEC50 is less than 4.52 at human D2R/β-arrestin [2] and 4.52 to 5.00 at human D2R/β-arrestin [5].

As to `O=C(NC(c1ccc(F)cc1)c1ccccn1)C1CCN(CCOc2ccccc2Cl)CC1` (single isomer, unassigned) [Compound 53b, 1-(2-(2-chlorophenoxy)ethyl)-N-((4-fluorophenyl)(pyridin-2-yl)methyl) piperidine-4-carboxamide], the pIC50 at human D2R/β-arrestin [1] and on human D2R/β-arrestin [3] was 6.00 to 7.00 throughout. For the same molecule, the pEC50 at human D2R/β-arrestin [2] and on human D2R/β-arrestin [5] was less than 4.52 in each case.

For the molecule `O=C(NC(c1ccc(Cl)cc1)c1ccccc1F)C1CCN(CCOc2ccccc2)CC1` (single isomer, unassigned) [Compound 40a, N((4-chlorophenyl)(2-fluorophenyl)methyl)-1-(2-phenoxyethyl) piperidine-4-carboxamide], the pIC50 on human D2R/β-arrestin [1] and at human D2R/β-arrestin [3] was 6.00 to 7.00 in each case. The negative logarithm of the EC50 (pEC50) on human D2R/β-arrestin [2] and on human D2R/β-arrestin [5] was less than 4.52 each time.

For the molecule `O=C(NC(c1ccc(F)cc1)c1ccccn1)C1CCN(CCOc2ccccc2F)CC1` (single isomer, unassigned) [Compound 54a, 1-(2-(2-fluorophenoxy)ethyl)-N-((4-fluorophenyl)(pyridin-2-yl)methyl) piperidine-4-carboxamide], the pIC50 at human D2R/β-arrestin [1] and at human D2R/β-arrestin [3] was more than 7.00 throughout. Also, the pEC50 at human D2R/β-arrestin [2] and on human D2R/β-arrestin [5] was less than 4.52 each time.

As for `O=C(NC(c1ccc(F)cc1)c1ccc(Cl)cc1)C1CCN(CCOc2ccccc2)CC1` (single isomer, unassigned) [Compound 42a], the pIC50 at human D2R/β-arrestin [1] and at human D2R/β-arrestin [3] was 6.00 to 7.00 each time. Further, the pEC50 at human D2R/β-arrestin [2] was less than 4.52; on human D2R/β-arrestin [5], 6.00 to 7.00.

As for `O=C(NC(c1ccc(Cl)cc1)c1ccccn1)C1CCN(CCn2ccc(=O)cc2)CC1` (single isomer, unassigned) [Compound 11b], the pIC50 on human D2R/β-arrestin [1] and at human D2R/β-arrestin [3] was less than 4.52 throughout. The pEC50 on human D2R/β-arrestin [2] and on human D2R/β-arrestin [5] was less than 4.52 each time.

In the case of `O=C(NC(c1ccc(Cl)cc1)c1ccccc1F)C1CCN(CCOc2ccccc2F)CC1` (single isomer, unassigned) [Compound 96b, N-((4-chlorophenyl)(2-fluorophenyl)methyl)-1-(2-(2-fluorophenoxy)ethyl) piperidine-4-carboxamide], the pIC50 at human D2R/β-arrestin [1] and on human D2R/β-arrestin [3] was 6.00 to 7.00 throughout. Moreover, the pEC50 on human D2R/β-arrestin [2] and on human D2R/β-arrestin [5] was less than 4.52 each time.

Turning to `COc1cccc(C(NC(=O)C2CCN(CCOc3ccccc3F)CC2)c2ccccn2)c1` (single isomer, unassigned) [Compound 22a, 1-(2-(2-fluorophenoxy)ethyl)-N-((3-methoxyphenyl)(pyridin-2-yl)methyl) piperidine-4-carboxamide], the pIC50 on human D2R/β-arrestin [1] and on human D2R/β-arrestin [3] was 6.00 to 7.00 in each case. In addition, the pEC50 is less than 4.52 at human D2R/β-arrestin [2] and 4.52 to 5.00 on human D2R/β-arrestin [5].

In the case of `O=C(NC(c1ccccc1)c1ccc(F)cc1)C1CCN(CCOc2ccccc2)CC1` (single isomer, unassigned) [Compound 45b], the pIC50 on human D2R/β-arrestin [1] and at human D2R/β-arrestin [3] was 6.00 to 7.00 each time. Also, the pEC50 on human D2R/β-arrestin [2] is less than 4.52; at human D2R/β-arrestin [5] it was 6.00 to 7.00.

Turning to `O=C(NC(c1ccc(F)cc1)c1ccc(Cl)cc1)C1CCN(CCOc2ccccc2)CC1` (single isomer, unassigned) [Compound 42b], the pIC50 at human D2R/β-arrestin [1] and on human D2R/β-arrestin [3] was 5.00 to 6.00 throughout. Further, the pEC50 on human D2R/β-arrestin [2] is less than 4.52; on human D2R/β-arrestin [5], 4.52 to 5.00.

As to `O=C(NC(c1ccccc1)c1ccc(F)cc1)C1CCN(CCOc2ccccc2)CC1` (single isomer, unassigned) [Compound 45a], the pIC50 at human D2R/β-arrestin [1] and on human D2R/β-arrestin [3] was 6.00 to 7.00 each time. For the same molecule, the pEC50 at human D2R/β-arrestin [2] and at human D2R/β-arrestin [5] was less than 4.52 each time.

For `O=C(NC(c1ccc(Cl)cc1)c1ccccn1)C1CCN(CCOc2ccc3cccnc3c2)CC1` (single isomer, unassigned) [Compound 16a], the pIC50 at human D2R/β-arrestin [1] and at human D2R/β-arrestin [3] was less than 4.52 in each case. Further, the results for the pEC50 on human D2R/β-arrestin [2] and at human D2R/β-arrestin [5] were 5.00 to 6.00 and more than 7.00, respectively.

Consider `O=C(NC(c1ccc2c(c1)OC(F)(F)O2)c1ccccn1)C1CCN(CCOc2ccccc2)CC1` (single isomer, unassigned) [Compound 119a], for which the pIC50 on human D2R/β-arrestin [1] and on human D2R/β-arrestin [3] was 5.00 to 6.00 each time. Further, the pEC50 at human D2R/β-arrestin [2] and on human D2R/β-arrestin [5] was less than 4.52 in each case.

`O=C(NC(c1ccc(F)cc1)c1ccccn1)C1CCN(CCOc2ccccc2C(F)(F)F)CC1` (single isomer, unassigned) [Compound 52b]: the pIC50 on human D2R/β-arrestin [1] and at human D2R/β-arrestin [3] was 6.00 to 7.00 in each case. The pEC50 on human D2R/β-arrestin [2] and on human D2R/β-arrestin [5] was less than 4.52 throughout.

With `O=C(NC(c1ccc(Cl)cc1)c1ccccn1)C1CCN(CCOc2cc(F)ccc2F)CC1` (single isomer, unassigned) [Compound 14a], the pIC50 was less than 4.52 at human D2R/β-arrestin [1] and 5.00 to 6.00 at human D2R/β-arrestin [3]. In addition, the pEC50 is 6.00 to 7.00 on human D2R/β-arrestin [2] and more than 7.00 on human D2R/β-arrestin [5].

In the case of `CC1(C(=O)NC(c2ccc(F)cc2)c2ccccn2)CCN(CCOc2ccccc2C(F)(F)F)CC1` (single isomer, unassigned) [Compound 70a, N-((4-fluorophenyl)(pyridin-2-yl)methyl)-4-methyl-1-(2-(2-(trifluoromethyl)phenoxy)ethyl) piperidine-4-carboxamide], the pIC50 on human D2R/β-arrestin [1] and at human D2R/β-arrestin [3] was more than 7.00 in each case. The pEC50 on human D2R/β-arrestin [2] and at human D2R/β-arrestin [5] was less than 4.52 throughout.

For the molecule `O=C(NC(c1ccc(Cl)cc1)c1ccccn1)C1CCN(CCn2ccc(=O)cc2)CC1` (single isomer, unassigned) [Compound 11a], the values for the pIC50 on human D2R/β-arrestin [1] and on human D2R/β-arrestin [3] were 5.00 to 6.00 and 6.00 to 7.00, respectively. In addition, the pEC50 on human D2R/β-arrestin [2] and on human D2R/β-arrestin [5] was less than 4.52 in each case.

Regarding `O=C(NC(c1ccc2c(c1)OCO2)c1ccccn1)C1CCN(CCOc2ccccc2F)CC1` (single isomer, unassigned) [Compound 95a, N-(benzo[d][1,3]dioxol-5-yl(pyridin-2-yl)methyl)-1-(2-(2-fluorophenoxy)ethyl) piperidine-4-carboxamide], the pIC50 on human D2R/β-arrestin [1] and on human D2R/β-arrestin [3] was 6.00 to 7.00 in each case. Besides, the pEC50 on human D2R/β-arrestin [2] and on human D2R/β-arrestin [5] was less than 4.52 throughout.

In the case of `O=C(NC(c1cccc(F)c1)c1ccccn1)C1CCN(CCOc2ccccc2)CC1` (stereo not shown) [Compound 27], the pIC50 was less than 4.52 at human D2R/β-arrestin [1] and 5.00 to 6.00 on human D2R/β-arrestin [3]. Further, the results for the pEC50 at human D2R/β-arrestin [2] and on human D2R/β-arrestin [5] were less than 4.52 and 6.00 to 7.00, respectively.

Turning to `COc1cccc(C(NC(=O)C2CCN(CCOc3ccccc3)CC2)c2ccccn2)c1` (stereo not shown) [Compound 35a], the pIC50 at human D2R/β-arrestin [1] and at human D2R/β-arrestin [3] was 4.52 to 5.00 each time. For the same molecule, the negative logarithm of the EC50 (pEC50) at human D2R/β-arrestin [2] was less than 4.52; on human D2R/β-arrestin [5], 4.52 to 5.00.
